Patent US20080221074A1, “Drug Screen and Treatment Method” (priority 2006, published 2008)
Read-outs that look alike come from different tables or passages of the source.

Tests used:
[1] = metabolic stability in liver microsomes, species not stated; conditions: compared with androst-5-ene-3β,17β-diol
Protocol: The protocol was performed as follows. […] (2) Set up samples as follows. […] (4) The internal standard/acetonitrile solution.

[2] = system: lethal amount of bacterial lipopolysaccharide (LPS); test: lethal shock protocol; assay type: in vivo, mice; conditions: second assay; oral gavage 24 h before and 1 h after LPS
Protocol: Treatment of lethal inflammation/shock. Two compounds, 16α-bromoepiandrosterone (3β-hydroxy-16α-bromoandrostane-17-one) and 3β,16α-dihydroxy-17-oxoandrostane, were used in a lethal shock protocol. In one protocol, 3 mg of 16α-bromoepiandrosterone was administered to one group of animals by oral gavage, while another group received 3 mg of 16α-bromoepiandrosterone by subcutaneous injection. A group of control animals received a placebo control. In this protocol, the 16α-bromoepiandrosterone was administered to mice at 24 hours before and at 1 hour after administration of a lethal amount of bacterial lipopolysaccharide (LPS). By the end of the observation period, 72 hours after LPS administration, none of the vehicle treated placebo control animals had survived, while 65% of animals that received 16α-bromoepiandrosterone by oral administration survived. 50% of the animals that received 16α-bromoepiandrosterone by subcutaneous injection survived. Animals that survived for 72 hours all recovered from the LPS exposure.
In a second assay, 16α-bromoepiandrosterone or 3β,16α-dihydroxy-17-oxoandrostane was administered to mice by oral gavage at 24 hours before and 1 hour after administration of a lethal amount of LPS. A vehicle treated group of animals was used as the placebo control.

[3] = system: carrageenan-λ induced pleurisy; test: carrageenan-λ induced lung (pleural cavity) inflammation; assay type: in vivo, CD1 male mice; conditions: for number of neutrophils relative to negative control group (set at 100%): exudate 4 h after
Source text: Treatment of lung inflammation. Three compounds, 3β,16α-dihydroxy-17-oxoandrostane, 3α,16β,17β-trihydroxyandrostane and 3α,16α,17α-trihydroxyandrostane were used to treat inflammation in mice essentially as described (D. Auci et al., Ann. New York Acad. Sci. 1051:730-742 2005). Five to 8 week old CD1 male mice (Charles River, Calco, Italy) were used for the study. The animals were housed in a controlled environment and provided with standard rodent chow and water. Animal care was in compliance with applicable regulations on protection of animals. Mice were allocated into one of the following groups: (1) mice treated with 2% carrageenan-k in saline (carrageenan-λ treated control group), (2) mice treated with 0.1 mg, 0.01 mg or 0.001 mg 3β,16α-dihydroxy-17-oxoandrostane by subcutaneous (s.c.) injection 24 h and 1 h before carrageenan-λ administration, (3) mice treated with 0.1 mg, 0.01 mg or 0.001 mg of 3α,16α,17α-trihydroxyandrostane by s.c. injection 24 and 1 h before carrageenan; (4) mice treated with 0.1 mg, 0.01 mg or 0.001 mg […],16β,17β-trihydroxyandrostane by s.c. injection 24 h and 1 h before carrageenan-λ administration; (5) mice treated with vehicle (0.1% carboxymethylcellulose, 0.9% saline, 2% tween 80, 0.05% phenol) s.c. 24 h and 1 h before carrageenan-λ administration; (6) mice treated with rabbit anti-mouse polyclonal anti-TNF-α antibody (200 μg) given as an intraperitoneal bolus 24 h and 1 h before carrageenan-λ administration (positive control group); and (7) sham-operated mice that were not treated with carrageenan-λ. Each group consisted of 10 mice. All treatments were given in a final volume of 100 μL. Lung (pleural cavity) inflammation was induced as follows. The mice were anaesthetised with isoflurane and a skin incision was made at the level of the left sixth intercostal space. The underlying muscle was dissected and either 0.1 mL saline (control) or 0.1 mL saline containing 2% λ-carrageenan was injected into the pleural cavity. The carrageenan-λ is a potent inducer of inflammation, which is manifested in this protocol by accumulation of fluid and neutrophils in the pleural cavity. The incision was closed with a suture and the animals were allowed to recover.
At 4 h after the injection of carrageenan-λ, the animals were euthanized by exposure to CO2. The chest was carefully opened and the pleural cavity rinsed with 1 mL of saline solution containing heparin (5 U/mL) and indomethacin (10 μg/mL). The exudate and washing solution were removed by aspiration and the total volume measured. Any exudate contaminated with blood was discarded. The amount of exudate was calculated by subtracting the injected 1 mL volume from the total pleural cavity volume that was recovered. The neutrophils in the exudate were suspended in phosphate-buffer saline and counted with an optical microscope in a Burker's chamber after Trypan Blue staining. The results were analysed by one-way ANOVA followed by a Bonferroni post-hoc test for multiple comparisons. A p-value less than 0.05 was considered significant. For statistical analysis each group was compared to the control group of mice that were challenged with carrageenan-k and received no other treatment.
The table below describes the number of neutrophils from the treated animal groups relative to untreated control animals that were exposed to carrageenan-λ, but not treated with anything else (negative control group). The neutrophil number for the negative control group was set at 100% and other groups were compared to this.

human whole blood = test: γ-interferon production in human whole blood exposed to LPS; assay type: cell-based; conditions: 24 hours with LPS; 16α-bromoepiandrosterone at 100 ng/mL
Protocol: Anti-inflammation activity in human cells in vitro. […] The amount of γ-interferon was measured in the growth medium when the cells had been incubated in the presence of LPS for 24 hours.

[4] = system: human T lymphocytes (PBMC); test: human mixed lymphocyte reaction (MLR); assay type: cell-based; conditions: 300 nM or 30 nM
Source text: Human mixed lymphocyte reaction (MLR). The capacity of 3β,16α-dihydroxy-17-oxoandrostane, 3β,17β-dihydroxy-16-oxoandrostane, 17α-ethynylandrost-5-ene-3β,7β,17β-triol, and 17β-aminoandrost-5-ene-3β-ol to affect antigen specific stimulation in which human T lymphocytes respond to a specific foreign antigen (major histocompatibility complex).
Blood samples were obtained from 3 (2 males, […]) fasting, healthy human volunteers of 23-31 years old. […] The subjects were bled between 9 and 10 AM to limit possible fluctuations in the circulating levels of hormones or cytokines that could have influenced the in vitro responses of their lymphocytes. Peripheral blood mononuclear cells (PBMC) were isolated by centrifugation on Ficoll-Hypaque (density 1.077, Biochrom AG, Berlin, Germany) gradients and resuspended in culture medium (RPMI 1640 supplemented with 2 mM L-glutamine, penicillin (100 U/mL) and streptomycin ([…]) (Invitrogen s.rl., Milan, Italy). Autologous (responder) inactivated plasma was used at 10%. Five hundred thousand responder PBMC (PBMCr) and 500,000 allogeneic irradiated (30 Gy) stimulator PBMC (PBMCs) were mixed at a ratio of 1:1 in 200 μL medium and cultured for 6 days in flat bottom 96 well plates (Nunc, Roskilde, Denmark) at a concentration of 300 nM or 30 nM for each of the 4 compounds. The compounds were dissolved in ethanol and then diluted to the desired concentration with culture medium leading to a final solution containing 0.01% of ethanol. This vehicle was used as control. Controls also included PBMCr and PBMCs cultured separately. During the last 8 hours of the culture period the PBMC were pulsed with […] [^3H] thymidine (Amersham, Milan, Italy). The cells were then harvested and radioactivity incorporation measured with a beta cell counter. The mean cpm of quadruplicate wells was calculated. Proliferation of T cells was expressed as a stimulation index: SI=cpm (PMBCs xPBMCr)/cpm (PBMCr)+cpm (PBMCs). Statistical analysis was performed using the Student's t test. The cpm obtained from quadruplicate of each test compound were compared to proliferative responses obtained in control PBMCr and PBMCs cultured in the presence of the vehicle. Differences were considered significant at p<0.05.

[5] = system: bone loss after thermal injury; test: bone loss in thermally-injured mice; assay type: in vivo; conditions: 20% total body surface area thermal injury
Source text: In bone loss conditions, 5-androstene-3β,7β,17β-triol affected the principal bone structures, i.e., cortical and trabecular layers and the growth plate. […] We observed partial protection against loss of bone mineral content as measured by dual X-ray absorptiometry.

MG-63 cells = test: pilot studies of dexamethasone in MG-63 cells; assay type: cell-based; conditions: Homo sapiens
Source text: The capacity of compounds including 5-androstene-3β,7β,17β-triol, 17α-ethynyl-5-androstene-3β,7β,17β-triol and 4-estrene-3α,17β-diol to reverse adverse effects of glucocorticoids in bone growth was shown in the human MG-63 osteosarcoma cell line. MG-63 cells are osteoblasts, which are cells that mediate bone growth. Theis cell line has been used extensively to study bone biology and to characterize the biological activity of compounds for treatment of bone loss conditions (e.g., B. D. Boyan et al., J. Biol. Chem., 264(20):11879-11886, 1989; L. C. Hofbauer et al., Endocrinology, 140(10):4382-4389, 1999). Adverse toxicities associated with elevated glucocorticoid levels include a decrease in the production of IL-6 and IL-8 by osteoblasts, including the MG-63 cell line, and an increase in the expression of the 11β-hydroxysteroid dehydrogenase type 1 enzyme (11β-HSD). Increased 11β-hydroxysteroid dehydrogenase type 1 enzyme results in increased levels of endogenous glucocorticoid activity by converting endogenous cortisone to the active cortisol, which inhibits bone growth. The 11β-HSD enzyme is expressed in liver, adipose tissue, brain and bone tissues. Cortisol generated by 11β-HSD-1 contributes to osteoporosis, insulin resistance, type 2 diabetes, dyslipidemia, obesity, central nervous system disorders such as stroke, neuron death, depression and Parkinson Disease. […]

NF-κB = test: inhibition of NF-κB activation in NF-κB-bla THP-1 cells after LPS stimulation; assay type: cell-based, human; conditions: Homo sapiens, THP-1; LPS stimulation; 50% of the compound's maximum inhibition; averages; read-out: IC50
In short: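 THP-1 monocytes stably carrying an NF-κB response element–driven β-lactamase reporter, plated about 24 h before activation with LPS at 0.2 ng/mL. Reporter activity measured by FRET ratiometric detection; values are averages of usually 2-4 runs per compound.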

[6] = system: popliteal lymph node cells; test: reporter antigen popliteal lymph node (PLN) assay; assay type: in vivo, BALB/C mice; conditions: compound 1.0 and 0.1 mg/day; dexamethasone 5 μg/day
Source text: Analysis of immune suppression. Glucocorticoid steroids such as dexamethasone or hydrocortisone are typically immune suppressive and have significant toxicities associated with their use. Immune suppression was examined in a reporter antigen popliteal lymph node assay in mice essentially as previously described (C. Goebel et al., Inflamm. Res., 45(Suppl. 2):S85-S90, 1996; R. Pieters et al., Environmental Health Perspectives 107(Suppl. 5):673-677, 1999). […] In this protocol, the vehicle was 0.1% carboxymethylcellulose, 0.9% saline, 2% tween 80 and 0.05% phenol, which contained 17α-ethynylandrost-5-ene-3β,7β,17β-triol in suspension in drug treated animals. Assessment of activity included (1) measuring suppression of numbers of total lymphocytes, antigen specific IgM, IgG1 and IgG2a antibody secreting cells (ASC) (ELISPOT assay) in popliteal lymph node cells; (2) analysis of cell surface marker (CD4, CD8, CD19, F480, CD80, CD86) expression by flow cytometry of living cells in suspension; and (3) IL-4, TNFα and IFNγ production by lymphocytes in vitro (ELISA).
Groups (n=5 per group) of specific pathogen free BALB/C mice were used. The Positive control group was treated with vehicle (oral gavage) and 5 μg/day dexamethasone by subcutaneous injection to induce immune suppression. Vehicle control animals (negative control) were treated with vehicle alone (oral gavage). One group of animals was treated with 17α-ethynylandrost-5-ene-3β,7β,17β-triol at 0.1 mg/day by oral gavage. Another group was treated with 1 mg/day of 17α-ethynylandrost-5-ene-3β,7β,17β-triol was administered to the animals oral gavage. The results were analyzed by two-tailed Student's t-test with equal variance. The animals were injected in the right hind footpad with 50 μL of freshly prepared sensitizing dose of TNP-OVA. […] Single cell suspensions were prepared, resuspended in 1 mL PBS-BSA (1%) and counted. Cell numbers, IL-4, IL-5 and IFNγ were measured.

## C[C@]12CC[C@H](O)CC1CC[C@@H]1[C@@H]2CC[C@]2(C)C(=O)[C@H](O)C[C@@H]12 (stereo partly drawn) [3β,16α-dihydroxy-17-oxoandrostane]
[1]
  rate of metabolism by microsomes: metabolized by microsomes at a rate similar to the androst-5-ene-3β,17β-diol reference compound
[2]
  survival 72 hours after LPS: 50%
[3]; 0.001 mg s.c. 24 h and 1 h before carrageenan-λ
  number of neutrophils relative to negative control group (set at 100%): 97%
[3]; 0.01 mg s.c. 24 h and 1 h before carrageenan-λ
  number of neutrophils relative to negative control group (set at 100%): 73%
[3]; 0.1 mg dose s.c.
  volume of pleural exudate: significantly reduced
[3]; 0.1 mg s.c. 24 h and 1 h before carrageenan-λ
  number of neutrophils relative to negative control group (set at 100%): 73%
[3]; s.c.
  potency compared with polyclonal anti-TNF-α antibody control: less potent
Human whole blood
  production of γ-interferon: Reduced production
[4]
  immune suppression (inhibition of the MLR): not appreciably immune suppressive

## C[C@]12CC[C@H]3[C@@H]([C@@H](O)C=C4C[C@@H](O)CC[C@@]43C)[C@@H]1CC[C@@H]2O [androst-5-ene-3β,7β,17β-triol]
[5]
  femur ash weight vs vehicle-treated burned mice: significantly (p<0.01) greater
  loss of cortical and trabecular bone mass and suppression of chondrocyte proliferation: significantly (p<0.01) prevented

## C[C@@H]1C[C@H]2[C@@H]3CCC4=CC(=O)C=C[C@]4(C)[C@@]3(F)[C@@H](O)C[C@]2(C)[C@@]1(O)C(=O)CO [dexamethasone, reference compound]
MG-63 cells; read-out: IC50 for inhibition of IL-6 from MG-63 cells
  IC50: 0.01 µM
MG-63 cells; read-out: IC50 for inhibition of growth of MG-63 cells
  IC50: 0.0153 µM
NF-κB
  IC50: 0.00047 µM
[6]
  IFNγ, IL-4 and IL-5 levels compared to vehicle control: reduced
